{"source": "ChEMBL document CHEMBL4665648", "about": "“Potent and selective inhibitors of receptor-interacting protein kinase 1 that lack an aromatic back pocket group” (Bioorg Med Chem Lett, 2019)", "key": {"[1]": {"experiment": "Inhibition of necroptosis in human HT-29 cells assessed as reduction in TNFalpha/BV6/zVAD-fmk-induced cell death incubated for 18 hrs by Cell Titer Glo luminescent cell viability assay", "type": "functional, cell-based", "conditions": "HT-29, 18 h"}, "[2]": {"molecular_target": "T1, Receptor-interacting serine/threonine-protein kinase 1 (Homo sapiens, UniProt Q13546)", "T1 sequence (Q13546 whole entry)": "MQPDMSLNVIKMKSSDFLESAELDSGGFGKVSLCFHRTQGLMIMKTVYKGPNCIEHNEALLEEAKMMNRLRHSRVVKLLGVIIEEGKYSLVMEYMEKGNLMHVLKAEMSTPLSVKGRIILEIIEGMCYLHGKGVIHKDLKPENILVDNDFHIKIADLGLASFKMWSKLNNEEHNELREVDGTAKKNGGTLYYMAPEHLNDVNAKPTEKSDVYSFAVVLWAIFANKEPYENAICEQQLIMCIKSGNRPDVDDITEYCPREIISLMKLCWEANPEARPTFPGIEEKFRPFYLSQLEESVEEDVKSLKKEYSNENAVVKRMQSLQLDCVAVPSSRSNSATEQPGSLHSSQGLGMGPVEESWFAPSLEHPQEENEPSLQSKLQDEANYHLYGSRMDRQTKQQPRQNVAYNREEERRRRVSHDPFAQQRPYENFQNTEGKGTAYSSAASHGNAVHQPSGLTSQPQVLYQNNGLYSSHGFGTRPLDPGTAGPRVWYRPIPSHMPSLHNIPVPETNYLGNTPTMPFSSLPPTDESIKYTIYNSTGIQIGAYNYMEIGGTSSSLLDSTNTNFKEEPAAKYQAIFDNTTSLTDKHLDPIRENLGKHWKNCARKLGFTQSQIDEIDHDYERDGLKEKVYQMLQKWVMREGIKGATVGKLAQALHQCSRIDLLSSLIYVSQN", "experiment": "Inhibition of recombinant human His/GST-tagged RIPK1 (2 to 257 residues) expressed in insect expression system incubated for 2 hrs by fluorescence polarization assay", "conditions": "read-out: Ki(app)"}, "[3]": {"experiment": "Lipophilicity, logD of compound at pH 7.4", "type": "physicochemical", "conditions": "buffer"}, "[4]": {"experiment": "Kinetic solubility of compound at pH 7.4", "type": "physicochemical", "conditions": "buffer, read-out: Kinetic_solubility"}}, "note": "pEC50, pKi: −log10 of the molar value.", "data": [{"compound": "CN1C(=O)[C@@H](NC(=O)c2n[nH]c3c2CC(C)(C)CC3)COc2ccccc21", "values": [{"measurement": "pEC50", "setting": "[1]", "value": 6.77}, {"measurement": "pKi", "setting": "[2]", "value": 7.38}]}, {"compound": "CN1C(=O)[C@@H](NC(=O)c2ncn3ccc(C(F)(F)F)cc23)COc2ccccc21", "values": [{"measurement": "pEC50", "setting": "[1]", "value": 7.92}, {"measurement": "pKi", "setting": "[2]", "value": 8.30}]}, {"compound": "CN1C(=O)[C@@H](NC(=O)c2nnn3c2C[C@H](C(F)(F)F)CC3)COc2ccccc21", "values": [{"measurement": "logD", "setting": "[3]", "value": 1.5}, {"measurement": "pEC50", "setting": "[1]", "value": 6.68}, {"measurement": "solubility kinetic", "setting": "[4]", "value": 99, "unit": "µM"}]}, {"compound": "CN1C(=O)[C@@H](NC(=O)c2n[nH]c3c2C2CC2CC3)COc2ccccc21", "note": "(single isomer, unassigned; diastereomer 1)", "values": [{"measurement": "pEC50", "setting": "[1]", "value": 5.16}]}, {"compound": "CN1C(=O)[C@@H](NC(=O)c2n[nH]c3ncc(C(F)(F)F)cc23)COc2ccccc21", "values": [{"measurement": "logD", "setting": "[3]", "value": 3.3}, {"measurement": "pEC50", "setting": "[1]", "value": 6.24}, {"measurement": "solubility kinetic", "setting": "[4]", "value": 59, "unit": "µM"}]}, {"compound": "CN1C(=O)[C@@H](NC(=O)c2nnn3c2CC(C(F)(F)C(F)(F)F)CC3)COc2ccccc21", "note": "(mixture of isomers)", "values": [{"measurement": "logD", "setting": "[3]", "value": 2}, {"measurement": "pEC50", "setting": "[1]", "value": 7.19}, {"measurement": "solubility kinetic", "setting": "[4]", "value": 57.1, "unit": "µM"}]}, {"compound": "CN1C(=O)[C@@H](NC(=O)c2nnc3ccc(C(F)(F)C(F)(F)F)nn23)COc2ccccc21", "values": [{"measurement": "logD", "setting": "[3]", "value": 1.6}, {"measurement": "pEC50", "setting": "[1]", "value": 6.89}, {"measurement": "solubility kinetic", "setting": "[4]", "value": 164, "unit": "µM"}]}, {"compound": "CN1C(=O)[C@@H](NC(=O)c2nnc[nH]2)COc2ccccc21", "values": [{"measurement": "pEC50", "setting": "[1]", "value": "< 4.70"}, {"measurement": "pKi", "setting": "[2]", "value": "< 5.00"}]}, {"compound": "CN1C(=O)[C@@H](NC(=O)c2n[nH]c3c2CC(c2ccccc2)CC3)COc2ccccc21", "note": "(mixture of isomers)", "values": [{"measurement": "pEC50", "setting": "[1]", "value": 6.28}]}, {"compound": "CN1C(=O)[C@@H](NC(=O)c2n[nH]c3c2CC2CC2C3)COc2ccccc21", "note": "(mixture of isomers)", "values": [{"measurement": "pEC50", "setting": "[1]", "value": 5.15}]}, {"compound": "CC(C)c1cnc2[nH]nc(C(=O)N[C@H]3COc4ccccc4N(C)C3=O)c2c1", "values": [{"measurement": "logD", "setting": "[3]", "value": 3.5}, {"measurement": "pEC50", "setting": "[1]", "value": 6.41}, {"measurement": "solubility kinetic", "setting": "[4]", "value": 3.4, "unit": "µM"}]}, {"compound": "CN1C(=O)[C@@H](NC(=O)c2n[nH]c3c2CC(n2cccn2)CC3)COc2ccccc21", "note": "(mixture of isomers)", "values": [{"measurement": "pEC50", "setting": "[1]", "value": 5.39}]}, {"compound": "CN1C(=O)[C@@H](NC(=O)c2n[nH]c3c2C[C@H](C(C)(C)C)CC3)COc2ccccc21", "values": [{"measurement": "pEC50", "setting": "[1]", "value": 6.54}]}, {"compound": "CN1C(=O)[C@@H](NC(=O)c2nnc3ccc(C(F)(F)F)nn23)COc2ccccc21", "values": [{"measurement": "logD", "setting": "[3]", "value": 1}, {"measurement": "pEC50", "setting": "[1]", "value": 5.62}, {"measurement": "solubility kinetic", "setting": "[4]", "value": 160, "unit": "µM"}]}, {"compound": "C[C@@H]1CCc2[nH]nc(C(=O)N[C@H]3COc4ccccc4N(C)C3=O)c2C1", "values": [{"measurement": "pEC50", "setting": "[1]", "value": 6.89}]}, {"compound": "C[C@H]1CCc2[nH]nc(C(=O)N[C@H]3COc4ccccc4N(C)C3=O)c2C1", "values": [{"measurement": "pEC50", "setting": "[1]", "value": 6.40}]}, {"compound": "CN1C(=O)[C@@H](NC(=O)c2n[nH]c3c2CCCC3)COc2ccccc21", "values": [{"measurement": "pEC50", "setting": "[1]", "value": 4.82}]}, {"compound": "CN1C(=O)[C@@H](NC(=O)c2n[nH]c3c2CCC2(CC2)C3)COc2ccccc21", "values": [{"measurement": "pEC50", "setting": "[1]", "value": "< 4.70"}]}, {"compound": "CN1C(=O)[C@@H](NC(=O)c2n[nH]c3ccc(C(F)(F)F)cc23)COc2ccccc21", "values": [{"measurement": "pEC50", "setting": "[1]", "value": 7.55}, {"measurement": "pKi", "setting": "[2]", "value": 8.30}]}, {"compound": "CN1C(=O)[C@@H](NC(=O)c2nn(C)c3c2C[C@H](C(F)(F)F)CC3)COc2ccccc21", "values": [{"measurement": "pEC50", "setting": "[1]", "value": 6.30}, {"measurement": "pKi", "setting": "[2]", "value": 7.20}]}, {"compound": "CN1C(=O)[C@@H](NC(=O)c2n[nH]c3c2CCC(C)(C)C3)COc2ccccc21", "values": [{"measurement": "pEC50", "setting": "[1]", "value": "< 4.70"}, {"measurement": "pKi", "setting": "[2]", "value": "< 5.00"}]}, {"compound": "CN1C(=O)[C@@H](NC(=O)c2n[nH]c3c2C[C@H](C(F)(F)F)CC3)COc2ccccc21", "values": [{"measurement": "pEC50", "setting": "[1]", "value": 7.37}, {"measurement": "pKi", "setting": "[2]", "value": 8.15}]}]}
